Data from patent publication US4880922A, “Carbapenems with quaternized heterothioalkylthio substitution at position 2” (Bristol-Myers Company, priority 1985, dated 1989).
Values after ≈ are worked out from the molar mass of the structure shown.

Legend:
Str. pneumoniae = assay: In vitro antibacterial activity, MIC by tube dilution; type: cell-based; details: Streptococcus pneumoniae, Nutrient Broth, overnight, 37° C.
Staph. aureus (Pen-R) = assay: as above; type: cell-based; details: Staphylococcus aureus, Nutrient Broth, overnight, 37° C.
Ps. aeruginosa [1] = assay: as above; type: cell-based; details: Pseudomonas aeruginosa, Nutrient Broth, overnight, 37° C.
Pr. morganii = assay: as above; type: cell-based; details: Morganella morganii, Nutrient Broth, overnight, 37° C.
Pr. vulgaris = assay: as above; type: cell-based; details: Proteus vulgaris, Nutrient Broth, overnight, 37° C.
Pr. rettgeri = assay: as above; type: cell-based; details: Providencia rettgeri, Nutrient Broth, overnight, 37° C.
K. pneumoniae = assay: as above; type: cell-based; details: Klebsiella pneumoniae, Nutrient Broth, overnight, 37° C.
[2] = Urinary recovery after intramuscular administration to mice; type: in vivo; details: mouse, urine, im, 20 mg/kg, 0-24 hours after administration, 0.1 M phosphate buffer pH 7, single test, 4 mice, read-out: Urinary recovery, Percentage of Dose Recovered
Description: (§1) Compounds were solubilized in 0.1 M phosphate buffer pH 7. Values are fro
(§2) a single test; 4 mice per compound.

[3] = Blood levels in mice after intramuscular administration; type: in vivo; details: mouse, im, 20 mg/kg
Description: as §1, §2

Str. faecalis = assay: In vitro antibacterial activity, MIC by tube dilution; type: cell-based; details: Enterococcus faecalis, Nutrient Broth, overnight, 37° C.
Ps. (Carb-R) = assay: as above; type: cell-based; details: Nutrient Broth, overnight, 37° C.
Ser. marcescens = assay: as above; type: cell-based; details: Serratia marcescens, Nutrient Broth, overnight, 37° C.
Staph. aureus = assay: as above; type: cell-based; details: Staphylococcus aureus, Nutrient Broth, overnight, 37° C.
Ent. cloacae = assay: as above; type: cell-based; details: Enterobacter cloacae, Nutrient Broth, overnight, 37° C.
Str. pyogenes = assay: as above; type: cell-based; details: Streptococcus pyogenes, Nutrient Broth, overnight, 37° C.
Pr. mirabilis = assay: as above; type: cell-based; details: Proteus mirabilis, Nutrient Broth, overnight, 37° C.
Ps. aeruginosa [4] = assay: Protective effect in the intramuscular treatment of infected mice; type: in vivo; details: Pseudomonas aeruginosa, im, I.M., column of the in vitro table, read-out: PD50 I.M.
Experimental: The in vivo therapeutic efficacy of the compound of Example 1 after intramuscular administration to mice experimentally infected with various organisms are shown in the following Table. The PD50 (dose in mg/kg required to give protection to 50% of the infected mice) is indicated.
Treatment Schedule: Mice were treated i.m. with drugs 0 and 2 hours

E. coli = assay: In vitro antibacterial activity, MIC by tube dilution; type: cell-based; details: Escherichia coli, Nutrient Broth, overnight, 37° C.

C[C@@H](O)[C@H]1C(=O)N2C(C(=O)[O-])=C(SCCSc3cccc[n+]3C)C[C@H]12 [Example 1, (5R,6S) 6-(1R-hydroxyethyl)-3-[(1-methylpyridinium-2-yl)-2-thioethylthio]-7-oxo-1-azabicyclo (3.2.0)hept-2-ene-2-carboxylate]
MIC (Str. pneumoniae): 0.0005 µg/mL (≈ 0.00131 µM)
MIC (Staph. aureus (Pen-R)): 0.004 µg/mL (≈ 0.0105 µM)
MIC (Ps. aeruginosa [1]): 8 µg/mL (≈ 21 µM)
MIC (Pr. morganii): 0.06 µg/mL (≈ 0.158 µM)
MIC (Pr. vulgaris): 0.016 µg/mL (≈ 0.0421 µM)
MIC (Pr. rettgeri): 0.13 µg/mL (≈ 0.342 µM)
MIC (K. pneumoniae; first line (strain not named)): 0.03 µg/mL (≈ 0.0788 µM)
MIC (K. pneumoniae; second line (strain not named)): 0.06 µg/mL (≈ 0.158 µM)
dose excreted at 24 h [2]: 31.5%
AUC [3]: 4100 ng·h/mL
concentration at 10 min ([3]; 10 min after administration, read-out: Blood Level): 11100 ng/mL
concentration at 20 min ([3]; 20 min after administration, read-out: Blood Level): 8000 ng/mL
concentration at 0.5 h ([3]; 30 min after administration, read-out: Blood Level): 3600 ng/mL
concentration at 0.75 h ([3]; 45 min after administration, read-out: Blood Level): 1000 ng/mL
concentration at 1 h ([3]; 60 min after administration, read-out: Blood Level): < 300 ng/mL
concentration at 1.5 h ([3]; 90 min after administration, read-out: Blood Level): < 300 ng/mL
half-life ([3]; read-out: t1/2 (half-life)): 8 min
MIC (Str. faecalis): 0.13 µg/mL (≈ 0.342 µM)
MIC (Ps. (Carb-R)): 2 µg/mL (≈ 5.26 µM)
MIC (Ser. marcescens): 0.03 µg/mL (≈ 0.0788 µM)
MIC (Staph. aureus; Staph. aureus + 50% serum): 0.008 µg/mL
MIC (Staph. aureus; Staph. aureus): 0.004 µg/mL (≈ 0.0105 µM)
MIC (Ent. cloacae; first line (strain not named)): 0.06 µg/mL (≈ 0.158 µM)
MIC (Ent. cloacae; second line (strain not named)): 0.13 µg/mL (≈ 0.342 µM)
MIC (Str. pyogenes): 0.0005 µg/mL (≈ 0.00131 µM)
MIC (Pr. mirabilis): 0.016 µg/mL (≈ 0.0421 µM)
ED50 (Ps. aeruginosa [4]): 2.9 mg/kg
MIC (E. coli; first line (strain not named)): 0.008 µg/mL (≈ 0.021 µM)
MIC (E. coli; second line (strain not named)): 0.016 µg/mL (≈ 0.0421 µM)
